# Results: patent publication US20220041559A1, “BENZO-AND PYRIDO-PYRAZOLES AS PROTEIN KINASE INHIBITORS” (ROTTAPHARM BIOTECH S.R.L., priority 2019, published 2022)
# pIC50: −log10 of the molar value. Like-named read-outs stand apart in the source and are kept apart here.
# Assays:
# FYN = biological target: T1, FYN (Homo sapiens, UniProt P06241); experiment: Z'-LYTE in vitro kinase assay, FYN kinase inhibition; format: biochemical
# T1 construct: purchased CarnaBioscience
# In short: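 Active FYN incubated with Z′-LYTE Tyr 2 peptide, near-Km ATP and compound (10^−10 to 10^−5 M final, 1% DMSO) in 50 mM Hepes pH 7.5, 10 mM MgCl2, 1 mM EGTA, 0.01% Brij-35, 60 min at 25° C. Protease development then coumarin/fluorescein FRET readout gives % phosphorylation; IC50 by non-linear fitting.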
# U87MG = experiment: Cell viability, ViaCount assay, U87MG; format: cell-based, human; conditions: tested cell lines (U87MG, U373)
# Method: U87MG: a human glioblastoma astrocytoma from ATCC. Grown in DMEM medium supplemented with 10% FBS at 37° C. with CO2.
# Cell viability and total cell count was performed with ViaCount Assay on Guava® Systems, which was able to distinguish viable and non-viable cells based on differential permeabilities of two DNA-binding dyes in the Guava ViaCount® Reagent. 2×10^4 cancer cells were plated in 24 well in DMEM 10%. After 72 h cells were treated with the different compounds for 24, 72 h or 7 days, with a medium change and a second treatment with the product on day 4. At the end of the incubation period the analysis was done following the kit instructions.
# [1] = Pharmacokinetics in CD1 mice, iv and po; format: in vivo; conditions: 3 mg/kg; for Kp: brain and plasma, read-out: B/P (brain to plasma ratio); for half-life: read-out: t½* (converted)
# human FynB = human FynB (Homo sapiens, UniProt P06241); experiment: Inhibition of FynB-induced Tau(Y18)-phosphorylation (cell-based assay, HEK293)
# Method: HEK293 cells (Human Embryonic Kidney 293) were seeded at 6×10^5 in poly-D-lysine 12 w microplates and grown adherent in medium DMEM/10% FBS at 37° C. with 5% CO2. After 24 h, cells were transfected in order to over-express either constitutively active form of human FynB and Tau protein (isoform 0N4R), through an optimized Lipofectamine® 3000 Transfection protocol (Life Technologies™). A non-transfected sample (negative control) was included in every experiment.
# Twenty-four hours from transfection, treatments of cells were performed by adding fresh medium containing diluent (DMSO 0.1% final concentration) or test compounds. The incubation was carried out for 6 or 24 hours at 37° C. with 5% CO2. All experimental conditions were performed in duplicate.
# At the end of the incubation, the medium was removed and cellular lysates were obtained by adding M-PER lysis buffer containing a 1× Protease/Phosphatase inhibitors cocktail. Then, lysates were transferred into Eppendorf tubes, sonicated and stored at −80° C.
# Protein content was measured by Bradford method. Lysates were analyzed by a customized ELISA assay for Tau phosphorylation (Tyrosine 18 residue-Fyn mediated) and Total amount determination. The net OD values were used to calculate the inhibitory effect of compounds.
# Chain of human FynB (P06241 271-524 limits assumed): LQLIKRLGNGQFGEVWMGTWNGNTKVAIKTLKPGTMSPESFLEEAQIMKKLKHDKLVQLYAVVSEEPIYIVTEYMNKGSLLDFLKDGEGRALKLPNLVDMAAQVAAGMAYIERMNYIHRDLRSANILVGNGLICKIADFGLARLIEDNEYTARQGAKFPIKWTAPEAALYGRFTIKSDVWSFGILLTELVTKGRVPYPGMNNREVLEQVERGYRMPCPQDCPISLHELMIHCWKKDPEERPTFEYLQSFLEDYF
# T1 sequence (P06241 whole entry): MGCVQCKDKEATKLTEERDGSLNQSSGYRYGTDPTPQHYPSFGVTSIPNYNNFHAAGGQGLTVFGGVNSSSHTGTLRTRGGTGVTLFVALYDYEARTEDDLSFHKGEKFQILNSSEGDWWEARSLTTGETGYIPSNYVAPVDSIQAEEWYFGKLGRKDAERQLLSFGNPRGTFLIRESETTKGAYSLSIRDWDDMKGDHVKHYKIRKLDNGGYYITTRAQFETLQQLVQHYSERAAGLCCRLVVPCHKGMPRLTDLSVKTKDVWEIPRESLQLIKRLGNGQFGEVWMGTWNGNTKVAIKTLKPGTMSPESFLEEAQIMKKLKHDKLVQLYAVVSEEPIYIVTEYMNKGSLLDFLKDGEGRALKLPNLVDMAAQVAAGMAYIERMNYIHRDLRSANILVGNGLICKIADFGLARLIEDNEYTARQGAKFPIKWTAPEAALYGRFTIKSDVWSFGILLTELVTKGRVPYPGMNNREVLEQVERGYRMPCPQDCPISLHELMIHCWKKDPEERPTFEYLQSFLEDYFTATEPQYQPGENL
smiles,measurement,setting,value
"CN1CCC(c2ccc(C(=O)Nc3n[nH]c4nc(Nc5ccccc5F)ccc34)cc2)CC1 [Compound 5, N-(6-((2-fluorophenyl)amino)-1H-pyrazolo[3,4-b]pyridin-3-yl)-4-(1-methylpiperidin-4-yl)benzamide]","FYN kinase inhibition, result in words",FYN; Table 17,more active
same,pIC50,"FYN; near-Km ATP, 60 minutes at 25° C.",7.16
same,"reduction of cell viability, result in words",U87MG,active in reducing cell viability
same,Tlast,[1]; iv,24 h
same,Kp,"[1]; mouse, calculated on AUC iv",1.2
same,Kp,"[1]; mouse, calculated on AUC po",1.4
same,AUC(0-inf),"[1]; mouse, plasma, iv",1640 ng·h/mL
same,AUC(0-t),"[1]; mouse, plasma, iv",1620 ng·h/mL
same,clearance,"[1]; mouse, plasma, iv, read-out: CLp",30.4 mL/min/kg
same,Vd,"[1]; mouse, plasma, iv, read-out: Vz",10.2 L/kg
same,half-life,"[1]; mouse, plasma, iv",3.9 h
same,AUC(0-inf),"[1]; mouse, plasma, po",1180 ng·h/mL
same,AUC(0-t),"[1]; mouse, plasma, po",1170 ng·h/mL
same,Cmax,"[1]; mouse, plasma, po",331 nM
same,Tmax,"[1]; mouse, plasma, po",2 h
same,bioavailability,"[1]; mouse, plasma, po",72%
same,half-life,"[1]; mouse, plasma, po",4 h
same,Tlast,[1]; po,24 h
same,pIC50,"human FynB; HEK293 over-expressing FynB and Tau 0N4R, incubation 6 or 24 hours, ELISA",6.52
same,"Inhibition of FynB-induced Tau(Y18)-phosphorylation, result in words",human FynB; summary of Table 20,best inhibitors
